Article PMC2217457 (The Journal of General Physiology, 2004)

Assays:
mouse AChR αS126V = test: Single-channel kinetics, αS126V AChR; assay type: cell-based; settings: clusters at different concentrations of ACh
mouse AChR αV46A = test: Single-channel kinetics, αV46A AChR; assay type: cell-based
mouse AChR αS126A = test: Single-channel kinetics, αS126A AChR; assay type: cell-based; settings: clusters at different concentrations of ACh
mouse AChR αP120G = test: Single-channel kinetics, αP120G AChR; assay type: cell-based; settings: clusters at different concentrations of ACh
mouse AChR αV46E = test: Single-channel kinetics, αV46E AChR; assay type: cell-based
mouse AChR αR20L = settings: 0.4 mM choline
[1] = target: T1, mouse muscle-type AChR wild-type (Mus musculus, UniProt P02716+P04756+P20782); settings: wt AChR
mouse AChR αR55W = settings: 20 mM choline
[2] = target: T1, mouse muscle-type AChR wild-type; settings: wt AChRs; ref Zhou et al., 1999; Grosman and Auerbach, 2000a; cited from earlier work
mouse AChR αR55A = settings: 20 mM choline

T1 sequence (P04756 21-457): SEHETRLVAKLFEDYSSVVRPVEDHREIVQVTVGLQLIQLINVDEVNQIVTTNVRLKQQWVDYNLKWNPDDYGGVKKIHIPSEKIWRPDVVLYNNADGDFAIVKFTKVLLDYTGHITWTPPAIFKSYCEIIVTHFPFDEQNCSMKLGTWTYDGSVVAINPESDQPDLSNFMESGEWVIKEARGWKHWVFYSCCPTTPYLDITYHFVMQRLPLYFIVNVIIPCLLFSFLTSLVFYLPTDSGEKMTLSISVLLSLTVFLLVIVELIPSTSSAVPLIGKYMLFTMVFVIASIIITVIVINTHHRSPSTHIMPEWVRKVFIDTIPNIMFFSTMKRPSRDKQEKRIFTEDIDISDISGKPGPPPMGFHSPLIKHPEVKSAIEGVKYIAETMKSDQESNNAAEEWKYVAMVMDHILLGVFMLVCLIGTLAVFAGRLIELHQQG
T1 sequence (P09690 24-501 partner): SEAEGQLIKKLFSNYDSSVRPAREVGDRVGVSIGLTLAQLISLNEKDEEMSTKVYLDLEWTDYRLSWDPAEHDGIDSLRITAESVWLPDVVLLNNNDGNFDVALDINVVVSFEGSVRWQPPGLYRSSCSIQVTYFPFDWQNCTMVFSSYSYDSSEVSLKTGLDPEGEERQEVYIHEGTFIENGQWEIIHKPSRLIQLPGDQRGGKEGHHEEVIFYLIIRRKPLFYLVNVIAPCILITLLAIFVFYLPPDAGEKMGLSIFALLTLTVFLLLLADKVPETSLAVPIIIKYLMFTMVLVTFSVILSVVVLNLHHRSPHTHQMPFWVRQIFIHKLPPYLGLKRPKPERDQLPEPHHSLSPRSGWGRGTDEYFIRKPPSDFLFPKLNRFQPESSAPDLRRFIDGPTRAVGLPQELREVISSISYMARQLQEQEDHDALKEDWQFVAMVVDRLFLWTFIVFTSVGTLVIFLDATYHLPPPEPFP
T1 sequence (P02716 25-520): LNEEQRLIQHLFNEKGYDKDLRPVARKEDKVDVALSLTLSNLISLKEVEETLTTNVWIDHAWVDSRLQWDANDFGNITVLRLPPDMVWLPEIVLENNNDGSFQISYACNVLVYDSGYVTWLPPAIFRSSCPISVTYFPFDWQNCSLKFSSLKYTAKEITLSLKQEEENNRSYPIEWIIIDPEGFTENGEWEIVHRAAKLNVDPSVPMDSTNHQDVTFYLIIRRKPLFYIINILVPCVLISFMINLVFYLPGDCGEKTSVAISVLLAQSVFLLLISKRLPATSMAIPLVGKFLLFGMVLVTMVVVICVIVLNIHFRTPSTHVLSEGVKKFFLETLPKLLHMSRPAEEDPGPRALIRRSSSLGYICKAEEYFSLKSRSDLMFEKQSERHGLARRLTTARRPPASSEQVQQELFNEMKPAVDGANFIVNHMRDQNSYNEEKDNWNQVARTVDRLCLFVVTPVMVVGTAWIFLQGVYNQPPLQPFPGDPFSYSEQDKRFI
T1 sequence (P20782 21-493): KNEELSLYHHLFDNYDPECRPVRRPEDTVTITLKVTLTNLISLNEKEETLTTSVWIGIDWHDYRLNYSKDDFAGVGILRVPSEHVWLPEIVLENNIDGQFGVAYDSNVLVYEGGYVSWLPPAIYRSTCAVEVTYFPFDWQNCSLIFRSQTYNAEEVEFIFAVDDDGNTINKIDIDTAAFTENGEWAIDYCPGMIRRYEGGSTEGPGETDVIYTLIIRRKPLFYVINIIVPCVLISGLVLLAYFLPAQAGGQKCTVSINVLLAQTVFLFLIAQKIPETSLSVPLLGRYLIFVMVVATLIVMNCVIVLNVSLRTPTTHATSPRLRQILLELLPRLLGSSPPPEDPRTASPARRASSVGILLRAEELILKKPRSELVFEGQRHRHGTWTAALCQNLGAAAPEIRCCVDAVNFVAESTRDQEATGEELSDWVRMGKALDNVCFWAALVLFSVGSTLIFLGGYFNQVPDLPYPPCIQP

CC(=O)OCC[N+](C)(C)C [ACh, acetylcholine]
α2 ACh (diliganded channel-closing rate constant) (mouse AChR αS126V): 1,770
β2 ACh (diliganded channel-opening rate constant) (mouse AChR αS126V): 40,253
α2 ACh (diliganded channel-closing rate constant) (mouse AChR αV46A; low ACh): 4,135 s^−1
β2 ACh (diliganded channel-opening rate constant) (mouse AChR αV46A; saturating ACh): 1,340 s^−1
α2 ACh (diliganded channel-closing rate constant) (mouse AChR αS126A): 2,598
β2 ACh (diliganded channel-opening rate constant) (mouse AChR αS126A): 48,918
α2 ACh (diliganded channel-closing rate constant) (mouse AChR αP120G): 2,006
β2 ACh (diliganded channel-opening rate constant) (mouse AChR αP120G): 49,531
α2 ACh (diliganded channel-closing rate constant) (mouse AChR αV46E; low ACh): 6,613 s^−1
β2 ACh (diliganded channel-opening rate constant) (mouse AChR αV46E; saturating ACh): 795 s⁻¹

C[N+](C)(C)CCO [Choline, choline]
α2 Choline (diliganded channel-closing rate constant) (mouse AChR αV46I; 0.4 mM choline): 1,982 s^−1
β2 Choline (diliganded channel-opening rate constant) (mouse AChR αV46I; 20 mM choline): 249 s⁻¹
α2 Choline (diliganded channel-closing rate constant) (mouse AChR αL110V; 0.4 mM choline): 1,874
β2 Choline (diliganded channel-opening rate constant) (mouse AChR αL110V; 20 mM choline): 70
α2 Choline (diliganded channel-closing rate constant) (mouse AChR αV29L; 0.4 mM choline): 2,644
β2 Choline (diliganded channel-opening rate constant) (mouse AChR αV29L; 20 mM choline): 200
α2 Choline (diliganded channel-closing rate constant) (mouse AChR αN141V; 0.4 mM choline): 1,389 s^−1
β2 Choline (diliganded channel-opening rate constant) (mouse AChR αN141V; 20 mM choline): 260 s⁻¹
α2 Choline (diliganded channel-closing rate constant) (mouse AChR αM144L; 0.4 mM choline): 2,911
β2 Choline (diliganded channel-opening rate constant) (mouse AChR αM144L; 20 mM choline): 917
α2 Choline (diliganded channel-closing rate constant) (mouse AChR αR20L): 2,119
α2 Choline (diliganded channel-closing rate constant) ([1]; 0.4 mM choline): 2,100 s^−1
β2 Choline (diliganded channel-opening rate constant) ([1]; 20 mM choline): 100 s⁻¹
β2 Choline (diliganded channel-opening rate constant) (mouse AChR αR55W): 98.2
α2 Choline (diliganded channel-closing rate constant) (mouse AChR αI116A; 0.4 mM choline): 2,238
β2 Choline (diliganded channel-opening rate constant) (mouse AChR αI116A; 20 mM choline): 110
α2 Choline (diliganded channel-closing rate constant) (mouse AChR αL65V; 0.4 mM choline): 2,166
β2 Choline (diliganded channel-opening rate constant) (mouse AChR αL65V; 20 mM choline): 124
α2 Choline (diliganded channel-closing rate constant) (mouse AChR αL35A; 0.4 mM choline): 2,423
β2 Choline (diliganded channel-opening rate constant) (mouse AChR αL35A; 20 mM choline): 182
α2 Choline (diliganded channel-closing rate constant) (mouse AChR αQ48A; 0.4 mM choline): 10,271 s^−1
β2 Choline (diliganded channel-opening rate constant) (mouse AChR αQ48A; 20 mM choline): 2,836 s^−1
α2 Choline (diliganded channel-closing rate constant) (mouse AChR αA122L; 0.4 mM choline): 2,142
β2 Choline (diliganded channel-opening rate constant) (mouse AChR αA122L; 20 mM choline): 358
α2 Choline (diliganded channel-closing rate constant) (mouse AChR αF137M; 0.4 mM choline): 1,017 s^−1
β2 Choline (diliganded channel-opening rate constant) (mouse AChR αF137M; 20 mM choline): 225 s⁻¹
α2 Choline (diliganded channel-closing rate constant) (mouse AChR αL40A; 0.4 mM choline): 1,629
β2 Choline (diliganded channel-opening rate constant) (mouse AChR αL40A; 20 mM choline): 312
α2 Choline (diliganded channel-closing rate constant) (mouse AChR αM144T; 0.4 mM choline): 1,180
β2 Choline (diliganded channel-opening rate constant) (mouse AChR αM144T; 20 mM choline): 54
diliganded gating equilibrium constant, times smaller than ACh [2]: 500 times
α2 Choline (diliganded channel-closing rate constant) (mouse AChR αM144A; 0.4 mM choline): 2,514
β2 Choline (diliganded channel-opening rate constant) (mouse AChR αM144A; 20 mM choline): 64
α2 Choline (diliganded channel-closing rate constant) (mouse AChR αN47K; 0.4 mM choline): 2,371 s^−1
β2 Choline (diliganded channel-opening rate constant) (mouse AChR αN47K; 20 mM choline): 607 s⁻¹
α2 Choline (diliganded channel-closing rate constant) (mouse AChR αM144I; 0.4 mM choline): 2,823
β2 Choline (diliganded channel-opening rate constant) (mouse AChR αM144I; 20 mM choline): 93
α2 Choline (diliganded channel-closing rate constant) (mouse AChR αN47A; 0.4 mM choline): 1,450 s^−1
β2 Choline (diliganded channel-opening rate constant) (mouse AChR αN47A; 20 mM choline): 933 s⁻¹
α2 Choline (diliganded channel-closing rate constant) (mouse AChR αD138E; 0.4 mM choline): 1,456 s^−1
β2 Choline (diliganded channel-opening rate constant) (mouse AChR αD138E; 20 mM choline): 239 s⁻¹
α2 Choline (diliganded channel-closing rate constant) (mouse AChR αS143T; 0.4 mM choline): 2,200
β2 Choline (diliganded channel-opening rate constant) (mouse AChR αS143T; 20 mM choline): 118
α2 Choline (diliganded channel-closing rate constant) (mouse AChR αL146F; 0.4 mM choline): 2,234
β2 Choline (diliganded channel-opening rate constant) (mouse AChR αL146F; 20 mM choline): 97
β2 Choline (diliganded channel-opening rate constant) (mouse AChR αR55A): 164
α2 Choline (diliganded channel-closing rate constant) (mouse AChR αS143A; 0.4 mM choline): 3,054
β2 Choline (diliganded channel-opening rate constant) (mouse AChR αS143A; 20 mM choline): 79
α2 Choline (diliganded channel-closing rate constant) (mouse AChR αL146M; 0.4 mM choline): 2,435
β2 Choline (diliganded channel-opening rate constant) (mouse AChR αL146M; 20 mM choline): 118
α2 Choline (diliganded channel-closing rate constant) (mouse AChR αL56A; 0.4 mM choline): 2,707
β2 Choline (diliganded channel-opening rate constant) (mouse AChR αL56A; 20 mM choline): 217
α2 Choline (diliganded channel-closing rate constant) (mouse AChR αV54L; 0.4 mM choline): 1,340
β2 Choline (diliganded channel-opening rate constant) (mouse AChR αV54L; 20 mM choline): 124
